Reference: US20240158446A1, “CYCLIC COMPOUND HAVING SELECTIVE INHIBITORY ACTION ON KRAS OVER HRAS AND NRAS” (CHUGAI SEIYAKU KABUSHIKI KAISHA, priority 2021, published 2024)
Read-outs that look alike come from different tables or passages of the source. Where a SMILES comes first, the peptide text is derived from it. Bridges are numbered along the chain shown (N, C = ends). [ ]: non-standard residue; d: D form. The star is where a group is joined. hPhe(3-Cl-4-CF3) = N[C@@H](CCc1ccc(C(F)(F)F)c(Cl)c1)C(=O)O; NPrPhe(4-CF3) = CCCN[C@@H](Cc1ccc(C(F)(F)F)cc1)C(=O)O; hPhe(3,4-Cl2) = N[C@@H](CCc1ccc(Cl)c(Cl)c1)C(=O)O; NMePhe(4-Me) = CN[C@@H](Cc1ccc(C)cc1)C(=O)O; NMeGly(cPent) = CN[C@H](C(=O)O)C1CCCC1; Hyp = O=C(O)[C@@H]1C[C@@H](O)CN1; NMeD = CN[C@@H](CC(=O)O)C(=O)O; NMeL = CN[C@@H](CC(C)C)C(=O)O; Morpholide = C1CN(*)CCO1; NMeA = CN[C@@H](C)C(=O)O; Ac5c = NC1(C(=O)O)CCCC1; Aze = O=C(O)[C@@H]1CCN1; Ac4c = NC1(C(=O)O)CCC1; NPrGly = CCCNCC(=O)O; Sar = CNCC(=O)O

What was measured:
[1] = biological target: GDP-bound KRAS wild-type protein (Homo sapiens, UniProt P01116); test: Binding to KRAS by surface plasmon resonance (SPR), Single Cycle Kinetics; settings: GDP-bound KRAS wild-type protein, read-out: KRAS KD
GDP-bound KRAS wild-type protein, sequence (P01116 whole entry): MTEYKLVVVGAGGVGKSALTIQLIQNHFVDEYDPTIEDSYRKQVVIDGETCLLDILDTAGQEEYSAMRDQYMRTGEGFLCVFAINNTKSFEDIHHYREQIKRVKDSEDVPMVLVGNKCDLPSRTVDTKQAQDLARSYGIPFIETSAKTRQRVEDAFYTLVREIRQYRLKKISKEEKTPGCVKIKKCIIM

[2] = biological target: GDP-bound NRAS wild-type protein (Homo sapiens, UniProt P01111); test: Binding to NRAS by surface plasmon resonance (SPR), Single Cycle Kinetics
GDP-bound NRAS wild-type protein, sequence (P01111 whole entry): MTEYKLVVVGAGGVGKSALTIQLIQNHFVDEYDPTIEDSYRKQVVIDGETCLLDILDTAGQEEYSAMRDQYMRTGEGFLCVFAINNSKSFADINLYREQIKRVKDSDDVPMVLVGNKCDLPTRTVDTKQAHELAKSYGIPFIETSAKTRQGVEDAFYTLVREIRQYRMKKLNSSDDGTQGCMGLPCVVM

[3] = biological target: GDP-bound HRAS wild-type protein (Homo sapiens, UniProt P01112); test: Binding to HRAS by surface plasmon resonance (SPR), Single Cycle Kinetics
GDP-bound HRAS wild-type protein, sequence (P01112 whole entry): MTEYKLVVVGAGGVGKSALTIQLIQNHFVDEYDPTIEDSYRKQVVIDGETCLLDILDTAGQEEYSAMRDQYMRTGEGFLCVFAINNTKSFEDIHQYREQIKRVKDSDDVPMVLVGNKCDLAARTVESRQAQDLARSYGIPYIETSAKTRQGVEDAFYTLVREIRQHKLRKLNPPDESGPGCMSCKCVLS

[4] = SPR, GDP-bound NRAS wild-type protein vs GDP-bound KRAS wild-type protein
[5] = SPR, GDP-bound HRAS wild-type protein vs GDP-bound KRAS wild-type protein
[6] = SPR Single Cycle Kinetics, 1:1 binding model

Compound | Kd ([1]; SPR, Single Cycle Kinetics) [nM] | NRAS/KRAS (ratio of KD value for NRAS to KD value for KRAS) [2, 4] | HRAS/KRAS (ratio of KD value for HRAS to KD value for KRAS) [3, 5] | Kd [1, 6] [nM] | further results
CCO[C@@H]1C[C@H]2C(=O)NC3(CCC3)C(=O)N(C)[C@@H](C3CCCC3)C(=O)N(C)[C@H](C(=O)N(C)C)CC(=O)N(C)[C@@H](C(C)C)C(=O)N[C@@H]([C@@H](C)CC)C(=O)N(C)CC(=O)N(C)[C@H]3C/C=C\CCN(C3=O)[C@@H](Cc3ccc(C(F)(F)F)cc3)C(=O)N(C)CC(=O)N[C@@H](CCc3cc(F)c(C(F)(F)F)c(F)c3)C(=O)N2C1 [PP1109, (2S,8S,12R,14S,20S,23S,27S,30S,36S,38Z)-20-cyclopentyl-8-[2-[3,5-difluoro-4-(trifluoromethyl)phenyl]ethyl]-12-ethoxy-27-isopropyl-N,N,4,19,22,26,32,35-octamethyl-30-[(1S)-1-methylpropyl]-3,6,9,15,18,21,25,28,31,34,42-undecaoxo-2-[[4-(trifluoromethyl)phenyl]methyl]spiro[1,4,7,10,16,19,22,26,29,32,35-undecazatricyclo[34.5.1.0^10,14]dotetracont-38-ene-17,1′-cyclobutane]-23-carboxamide] | 0.12 | A (a compound having 10 or more and less than 20 is denoted as A) | B (a compound having 3 or more and less than 10 is denoted as B) | – | –
CCCN1C(=O)CN(C)C(=O)CNC(=O)[C@H]([C@@H](C)CC)NC(=O)[C@H](CC(C)C)N(C)C(=O)C[C@@H](C(=O)N(C)C)NC(=O)[C@H](C2CCCC2)N(C)C(=O)C2(CCC2)NC(=O)[C@@H]2CCCN2C(=O)[C@H](CCc2ccc(C(F)(F)F)c(Cl)c2)NC(=O)CN(C)C(=O)[C@@H]1Cc1ccc(C(F)(F)F)cc1 [PP0362] ([NMeL]IG[Sar][NPrPhe(4-CF3)][Sar][hPhe(3-Cl-4-CF3)]P[Ac4c][NMeGly(cPent)]D-NMe2; lactam N-11) | – | B (a compound having 3 or more and less than 10 is denoted as B) | B (a compound having 3 or more and less than 10 is denoted as B) | 1 | –
CCCN1C(=O)[C@@H]2CCN2C(=O)[C@H](C)N(C)C(=O)[C@H]([C@@H](C)CC)NC(=O)[C@H](CC(C)C)N(C)C(=O)C[C@@H](C(=O)N(C)C)N(C)C(=O)[C@H](C2CCCC2)N(C)C(=O)C2(CCCC2)NC(=O)[C@@H]2C[C@@H](OCC)CN2C(=O)[C@H](CCc2ccc(C(F)(F)F)c(Cl)c2)NC(=O)CN(C)C(=O)[C@@H]1Cc1ccc(C(F)(F)F)cc1 [PP0438] ([NMeL]I[NMeA][Aze][NPrPhe(4-CF3)][Sar][hPhe(3-Cl-4-CF3)][Hyp](Et)[Ac5c][NMeGly(cPent)][NMeD]-NMe2; lactam N-11) | – | – | – | 0.03 | NRAS/KRAS (ratio of KD value with respect to NRAS to KD value with respect to KRAS) [2, 4]: C (A compound having a KD ratio of 0.1 or more and less than 3 is denoted as C); HRAS/KRAS (ratio of KD value with respect to HRAS to KD value with respect to KRAS) [3, 5]: C (A compound having a KD ratio of 0.1 or more and less than 3 is denoted as C)
CCO[C@@H]1C[C@H]2C(=O)NC3(CCC3)C(=O)N(C)[C@@H](C(CC)CC)C(=O)N(C)[C@H](C(=O)N(C)C)CC(=O)N(C)[C@@H](CC3CCCC3)C(=O)N[C@@H]([C@@H](C)CC)C(=O)N(C)CC(=O)N(C)[C@H]3C/C=C\CCN(C3=O)[C@@H](Cc3ccc(F)cc3C)C(=O)N(C)CC(=O)N[C@@H](CCc3cc(F)c(C(F)(F)F)c(F)c3)C(=O)N2C1 [PP1516] | – | – | – | – | Kd ([1]; SPR, Single Cycle Kinetics, 1:1 binding model): 0.98 nM; NRAS/KRAS (ratio of KD value for NRAS to KD value for KRAS) ([2]; SPR, GDP-bound NRAS wild-type protein vs GDP-bound KRAS wild-type protein, KD ratio class): A (a compound having 10 or more and less than 20 is denoted as A); HRAS/KRAS (ratio of KD value for HRAS to KD value for KRAS) ([3]; SPR, GDP-bound HRAS wild-type protein vs GDP-bound KRAS wild-type protein, KD ratio class): B (a compound having 3 or more and less than 10 is denoted as B)
CCC[C@H]1C(=O)N[C@@H]([C@@H](C)CC)C(=O)N2CCC[C@H]2C(=O)N(C)[C@H]2C/C=C\CCN(C2=O)[C@@H](Cc2ccc(C(F)(F)F)cc2)C(=O)N(C)CC(=O)N[C@@H](CCc2ccc(C(F)(F)F)c(OC)c2)C(=O)N2C[C@H](OCC)C[C@H]2C(=O)N(C)C2(CCC2)C(=O)N(C)[C@@H](C(CC)CC)C(=O)N(C)[C@H](C(=O)N(C)C)CC(=O)N1C [PP2317] | 0.4 | A (a compound having 10 or more and less than 20 is denoted as A) | A (a compound having 10 or more and less than 20 is denoted as A) | – | –
CCO[C@@H]1C[C@H]2C(=O)NC3(CCC3)C(=O)N(C)[C@@H](C3CCCC3)C(=O)N(CC)[C@H](C(=O)N3CCOCC3)CC(=O)N(C)[C@@H](CO)C(=O)N[C@@H]([C@@H](C)CC)C(=O)N(C)CC(=O)N(C)[C@H]3CCCCCN(C3=O)[C@@H](Cc3ccc(C(F)(F)F)cc3)C(=O)N(C)CC(=O)N[C@@H](CCc3cc(F)c(C(F)(F)F)c(F)c3)C(=O)N2C1 [PP0945] | 3.7 | B (a compound having 3 or more and less than 10 is denoted as B) | A (a compound having 10 or more and less than 20 is denoted as A) | – | –
CCC[C@H]1C(=O)N[C@@H]([C@@H](C)CC)C(=O)N(C)CC(=O)N(C)[C@H]2C/C=C\CCN(C2=O)[C@@H](Cc2ccc(C(F)(F)F)cc2)C(=O)N(C)CC(=O)N[C@@H](CCc2ccc3sc(F)c(C)c3c2)C(=O)N2C[C@H](OCC)C[C@H]2C(=O)NC2(CC(C)(C)C2)C(=O)N(C)[C@@H](C2CCCC2)C(=O)N(C)[C@H](C(=O)N(C)C)CC(=O)N1C [PP2948] | – | – | – | 0.055 | NRAS/KRAS (ratio of KD value with respect to GDP-bound NRAS wild-type protein to KD value with respect to KRAS) ([2]; SPR KD ratio NRAS/KRAS, class symbols): A (a compound having 10 or more and less than 20 is denoted as A); HRAS/KRAS (ratio of KD value with respect to GDP-bound HRAS wild-type protein to KD value with respect to KRAS) ([3]; SPR KD ratio HRAS/KRAS, class symbols): A (a compound having 10 or more and less than 20 is denoted as A)
CCCN1C(=O)CN(C)C(=O)CN(C)C(=O)[C@H]([C@@H](C)CC)NC(=O)[C@H](CC(C)C)N(C)C(=O)C[C@@H](C(=O)N2CCOCC2)N(C)C(=O)[C@H](C2CCCC2)N(C)C(=O)C2(CCCC2)NC(=O)[C@@H]2CCCN2C(=O)[C@H](CCc2ccc(Cl)c(Cl)c2)NC(=O)CN(C)C(=O)[C@@H]1Cc1ccc(C(F)(F)F)cc1 [PP0232] ([NMeL]I[Sar][Sar][NPrPhe(4-CF3)][Sar][hPhe(3,4-Cl2)]P[Ac5c][NMeGly(cPent)][NMeD]-Morpholide; lactam N-11) | – | B (a compound having 3 or more and less than 10 is denoted as B) | B (a compound having 3 or more and less than 10 is denoted as B) | 0.28 | –
CCO[C@@H]1C[C@H]2C(=O)NC3(CCC3)C(=O)N(C)[C@@H](C(CC)CC)C(=O)N(C)[C@H](C(=O)N3CCCC3)CC(=O)N(C)[C@H]3CCC/C=C/c4ccc(cc4)C[C@@H](C(=O)N(C)CC(=O)N[C@@H](CCc4ccc(Cl)c(Cl)c4)C(=O)N2C1)N1CC/C=C\C[C@@H](C1=O)N(C)C(=O)CN(C1CC1)C(=O)[C@H]([C@@H](C)CC)NC3=O [PP3040] | 0.29 | AA (a compound having 20 or more is denoted as AA) | A (a compound having 10 or more and less than 20 is denoted as A) | – | –
CCCN1CC(=O)N(C)[C@@H](Cc2ccc(C)cc2)C(=O)N(C)CC(=O)N[C@@H](CCc2ccc(C(F)(F)F)c(Cl)c2)C(=O)N2CCC[C@H]2C(=O)NC2(CCCC2)C(=O)N(C)[C@@H](C2CCCC2)C(=O)N(C)[C@H](C(=O)N2CCOCC2)CC(=O)N(C)[C@@H](CC(C)C)C(=O)N[C@@H]([C@@H](C)CC)C(=O)N(C)CC1=O [PP0020] ([NMeL]I[Sar][NPrGly][NMePhe(4-Me)][Sar][hPhe(3-Cl-4-CF3)]P[Ac5c][NMeGly(cPent)][NMeD]-Morpholide; lactam N-11) | – | C (A compound having a KD ratio of 0.1 or more and less than 3 is denoted as C) | C (A compound having a KD ratio of 0.1 or more and less than 3 is denoted as C) | 0.77 | –
